This is an account of results in patent US7186879B2, “Screening systems and methods for identifying modulators of xenobiotic metabolism” (Baylor College of Medicine, priority 2001, dated 2007).

Data set [1] deals with T1, murine CAR receptor (Mus musculus, UniProt O35627).
T1 sequence (O35627 1-358 M138L): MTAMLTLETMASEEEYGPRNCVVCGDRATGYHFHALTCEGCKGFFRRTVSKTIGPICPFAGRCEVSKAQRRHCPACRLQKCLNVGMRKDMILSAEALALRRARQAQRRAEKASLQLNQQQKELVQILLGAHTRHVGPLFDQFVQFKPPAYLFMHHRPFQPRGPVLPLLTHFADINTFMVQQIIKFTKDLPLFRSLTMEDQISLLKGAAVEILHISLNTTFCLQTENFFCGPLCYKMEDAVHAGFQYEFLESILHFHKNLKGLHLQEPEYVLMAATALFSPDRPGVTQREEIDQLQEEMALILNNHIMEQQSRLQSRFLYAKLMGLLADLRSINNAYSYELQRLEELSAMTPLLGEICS
The experiment in a line: Ligand activity on murine CAR receptor.

Data set [2] has as its system CYP2E1, CYP1A2, CYP3A11, GSTPi. The data set is described as follows: Northern blot of APAP metabolizing genes in liver of wild-type and CAR null mice. The conditions noted are these: mouse, in vivo, 500 mg/kg, 2 h. Here is the method:
CAR (+/+) or CAR (−/−) animals pretreated with phenobarbital (PB), TCPOBOP (TC), or vehicle alone were administered a 250 mg/kg dose of APAP by intraperitoneal injection (n=5–7 per treatment group) (FIG. 11A). […] Liver sections from different treatments were examined by histological staining (FIG. 11B). Liver samples from all treated animals were analyzed but only representative histology is presented. […] CAR (+/+) or CAR (−/−) animals were pretreated with PB, TCPOBOP (TC), or vehicle alone for three days (FIG. 11C). […] Liver samples treated as indicated were collected two hours after APAP and GSH levels were measured (n=5–7) (FIG. 11D).
CAR (+/+) and CAR (−/−) animals were given 250 mg/kg, 500 mg/kg, or 800 mg/kg doses of APAP, respectively (FIG. 12A). […] Total liver RNA was prepared from 500 mg/kg APAP treated CAR (+/+) and CAR (−/−) livers at 0 and 2 hours as indicated. […] The same blot was stripped and re-probed with β-actin as loading control.
For histologic examination of the treated mice, the left lobe of the livers was removed and immediately fixed in 4% formaldehyde-PBS solution, embedded in paraffin, sectioned at 5 μm, and stained with hematoxylin and eosin. Samples were examined under a light microscope. For RNA studies, total RNA was extracted using TRIzol Reagent (Invitrogen Life Technologies, Carlsbad, Calif.) according to the manufacture's instruction. Equivalent amount of RNA from 3–5 mice were pooled and 10 μg of each sample was subjected to northern blot analysis. […] Hepatic non-protein thiol was measured as an indication of hepatic GSH content. Mice were sacrificed two hours after intraperitoneal injection with APAP. […] Supernatant (0.5 ml) was mixed with 1.5 ml 0.1 mM Ellman's reagent [5,5′-dithio-bis(2-nitrobenzoic acid)] […] Absorbance was read at 412 nm using GSH solutions as quantitative standards.

Data set [3] concerns the target T2, human CAR (Homo sapiens, UniProt Q14994).
T2 sequence (Q14994 1-348 isoform Q14994-2): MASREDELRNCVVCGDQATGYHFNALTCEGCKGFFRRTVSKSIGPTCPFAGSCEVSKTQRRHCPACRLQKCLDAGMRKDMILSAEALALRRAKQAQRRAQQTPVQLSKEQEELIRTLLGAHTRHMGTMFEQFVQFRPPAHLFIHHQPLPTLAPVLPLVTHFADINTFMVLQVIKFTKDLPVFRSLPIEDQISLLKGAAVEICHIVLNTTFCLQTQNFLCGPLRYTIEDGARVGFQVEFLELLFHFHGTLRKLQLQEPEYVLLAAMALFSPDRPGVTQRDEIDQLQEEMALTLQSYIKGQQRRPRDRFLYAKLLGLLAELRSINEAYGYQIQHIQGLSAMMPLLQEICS
The data set is described as follows: Northern blot of gene induction in CAR humanized mice. The conditions noted are these: 500 mg/kg.
Method: CAR humanized mice (n=3) were treated with 500 mg/kg APAP or vehicle. After two hours, total liver RNA was prepared and subjected to Northern blot analysis with indicated probes.

Data set [4] has as its target T3, CAR (Mus musculus, UniProt O35627, M138L).
T3 sequence (O35627 1-358 M138L): T1 sequence (O35627 1-358 M138L)
The experiment in a line: Hepatoprotection after APAP (serum ALT, histology). To be noted: for protective effect, androstanol compared with N-acetylcysteine: wild-type mice, one and three hours after APAP 500 mg/kg, androstanol 100 mg/kg, N-acetylcysteine 1 g/kg. Here is the method: (§1) Wild-type mice (n=3 per group) were administered a 500 mg/kg dose of APAP by intraperitoneal injection.
(§2) For comparison, N-acetylcysteine (1 g/kg, purchased from Sigma and dissolved in PBS) was administered intraperitoneally to other mice.

The subject of data set [5] is wild-type and CAR null mice. To be noted: mouse, in vivo. From the text:
To rule out the possibility that the CAR knockout animals are somehow resistant to NAPQI, the metabolite was directly injected into the livers of both wild-type and CAR null mice, and serum ALT levels were increased 5 to 10 fold in both. Thus, that both increased NAPQI production and GSH depletion may contribute to xenobiotic induced APAP toxicity.

The subject of data set [6] is wild-type and CAR knockout mice. The experiment in a line: APAP toxicity after pretreatment with inducers (serum ALT, histology). The conditions noted are these: mouse, in vivo. It is filed as in vivo, mouse. The method, then: CAR (+/+) or CAR (−/−) animals pretreated with phenobarbital (PB), TCPOBOP (TC), or vehicle alone were administered a 250 mg/kg dose of APAP by intraperitoneal injection (n=5–7 per treatment group) (FIG. 11A). Serum was collected and alanine aminotransferase (ALT) levels were measured after 24 hours. Liver sections from different treatments were examined by histological staining (FIG. 11B). Liver samples from all treated animals were analyzed but only representative histology is presented. […] CAR (+/+) or CAR (−/−) animals were pretreated with PB, TCPOBOP (TC), or vehicle alone for three days (FIG. 11C). […] Liver samples treated as indicated were collected two hours after APAP and GSH levels were measured (n=5–7) (FIG. 11D).
The effect of PB and the potent CAR agonist TCPOBOP on APAP toxicity was examined in wild-type and CAR knockout mice. Both strains of mice were treated with inducers or the vehicle control, followed by 250 mg/kg APAP. For these studies, mice were kept in a pathogen-free animal facility under standard 12 hour light/12 hour dark cycle and fed standard rodent chow and water ad libitum. At least five mice between 8 and 10 weeks old were used in each treatment group. For 3-day PB (100 mg/kg) treatment, mice were injected intraperitoneally three times, one injection per day. TCPOBOP (3 mg/kg) and/or APAP were injected intraperitoneally. Phenobarbital and TCPOBOP were suspended or dissolved in corn oil, and APAP was dissolved in basic PBS (pH=11). PB and APAP were purchased from Sigma (St Louis, Mo.); TCPOBOP was a gift from Dr. Stephen Safe.
For histologic examination of the treated mice, the left lobe of the livers was removed and immediately fixed in 4% formaldehyde-PBS solution, embedded in paraffin, sectioned at 5 μm, and stained with hematoxylin and eosin. Samples were examined under a light microscope. For RNA studies, total RNA was extracted using TRIzol Reagent (Invitrogen Life Technologies, Carlsbad, Calif.) according to the manufacture's instruction. Equivalent amount of RNA from 3–5 mice were pooled and 10 μg of each sample was subjected to northern blot analysis. […] Preparation of probes for CYP2B10 and CYP3A11 were described as previously (Wei et al., Nature 407:920–923, 2000 and Zelko et al., Mol Cell Biol 21:2838–2846, 2001). PCR primers used were: CYP1A2: 5′-[…]-3′ (SEQ ID NO: 19) and 5′-[…]-3′ (SEQ ID NO: 20), CYP2E1: 5′-[…]-3′ (SEQ ID NO: 21) and 5′-[…]-3′ (SEQ ID NO: 22), GSTPi: 5′-[…]-3′ (SEQ ID NO: 23) and 5′-[…]-3′ (SEQ ID NO: 24). Hepatic non-protein thiol was measured as an indication of hepatic GSH content. Mice were sacrificed two hours after intraperitoneal injection with APAP. Livers were removed and immediately homogenized in four volumes of 5% trichloroacetic acid and then centrifuged at 1,600×g for 15 minutes. Supernatant (0.5 ml) was mixed with 1.5 ml 0.1 mM Ellman's reagent [5,5′-dithio-bis(2-nitrobenzoic acid)] (Sigma, St Louis, Mo.) and allowed to stand at room temperature for 15 minutes. Absorbance was read at 412 nm using GSH solutions as quantitative standards.

Another data set addresses T4, PXR (Mus musculus, UniProt O54915).
T4 sequence (O54915 1-431): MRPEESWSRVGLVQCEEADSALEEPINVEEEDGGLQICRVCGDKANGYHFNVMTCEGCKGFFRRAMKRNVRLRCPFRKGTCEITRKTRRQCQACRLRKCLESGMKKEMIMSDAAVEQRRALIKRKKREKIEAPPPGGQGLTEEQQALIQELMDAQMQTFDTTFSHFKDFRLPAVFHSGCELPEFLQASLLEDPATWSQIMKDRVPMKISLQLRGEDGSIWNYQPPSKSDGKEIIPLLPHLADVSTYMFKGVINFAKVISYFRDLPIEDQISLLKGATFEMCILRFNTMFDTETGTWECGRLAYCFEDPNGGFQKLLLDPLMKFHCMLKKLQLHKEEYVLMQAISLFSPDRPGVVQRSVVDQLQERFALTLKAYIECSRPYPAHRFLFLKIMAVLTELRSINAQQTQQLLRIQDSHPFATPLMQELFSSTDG
The conditions noted are these: cited from earlier work.

Data set [7] addresses T2, human CAR. To be noted: cited from earlier work.
Data set [8] deals with T5, murine CAR receptor (Mus musculus, UniProt O35627, M138L).
T5 sequence (O35627 1-358 M138L): T1 sequence (O35627 1-358 M138L)
To be noted: cited from earlier work.

The target of data set [9] is T6, CAR (Mus musculus, UniProt O35627).
T6 sequence (O35627 1-358 M138L): T1 sequence (O35627 1-358 M138L)
The experiment in a line: Hepatoprotection after APAP (serum ALT, histology). The method, then:
as §1, §2

For data set [10], the system named is CAR. The experiment in a line: Hepatoprotection after APAP (serum ALT, histology). The method, then:
as §1, §2

Where [11] appears, read: CAR humanized mice, two hours, densitometry.

Entries after “also recorded” stand apart in the source; their conditions may differ.

Regarding `CC(=O)Nc1ccc(O)cc1` [APAP, N-acetyl-p-aminophenol], the CAR agonist function result at murine CAR receptor [1] is recorded as “neither APAP nor NAPQI functions as a CAR agonist”. In data set [2], the “induction of CYP1A2 mRNA” value is “approximately 2.8 fold”, the “induction of CYP3A11 mRNA” value is given as approximately 4.4 fold and the “induction of GSTPi mRNA” value is reported as approximately 3.9 fold. For the same molecule, on human CAR [3] (CAR humanized mice), the “activation of human CAR” value was “human CAR is activated by APAP”. For the same molecule, on human CAR [3] (setting [11]), the “induction of CYP1A2 mRNA” value is listed as 1.8 fold, the “induction of CYP3A11 mRNA” value was 2.4 fold and the “induction of GSTPi mRNA” value is recorded as 1.8 fold. The “expression of CYP1A2, CYP3A11 and GSTPi” value at human CAR [3] (humanized mice) is listed as “increased expression”.

For the molecule `CC(=O)N[C@@H](CS)C(=O)O` [N-acetylcysteine], at CAR [4], the “protective effect, androstanol compared with N-acetylcysteine” value is “very similar”.

In the case of `CC(=O)N=C1C=CC(=O)C=C1` [NAPQI, N-acetyl-p-benzoquinone imine], the CAR agonist function result at murine CAR receptor [1] is “neither APAP nor NAPQI functions as a CAR agonist”. For the same molecule, in [5], the “increase of serum ALT levels” value is 5-10 fold.

For the molecule `CC(=O)[C@H]1[C@H](C#N)C[C@H]2[C@@H]3CC=C4C[C@@H](O)CC[C@]4(C)[C@H]3CC[C@@]21C` [PCN, 5-pregnen-3b-ol-20-one-16a-carbonitrile], in data set [6], the “sensitivity to APAP” value was “increase in sensitivity to APAP comparable to that observed with TCPOBOP pretreatment”. In addition, the PXR agonism entry at PXR is “strong PXR agonist”.

In the case of `C[C@@]12CCC[C@H]1[C@@H]1CC[C@H]3C[C@H](O)CC[C@]3(C)[C@H]1CC2` [androstanol, 5α-androstan-3α-ol], the “activity on human CAR receptor” value on human CAR [7] is listed as “not human CAR”. On murine CAR receptor [8], the “activity on murine CAR receptor” value was “can be blocked”. In addition, on CAR [4] (relative to wild-type control), the “protective effect, treatment five hours after APAP” value is “no protective effect”. Moreover, the “protective effect, androstanol compared with N-acetylcysteine” value at CAR [4] is given as “very similar”. For the same molecule, the “APAP toxicity after pretreatment” value on CAR [9] (wild-type mice) is listed as “decreases APAP toxicity”. Besides, the “serum ALT, treatment three hours after APAP” value on CAR [9] (wild-type mice relative to untreated wild-type) is “somewhat lower serum ALT levels”. Further, the “hepatotoxicity, treatment one hour after APAP” value on CAR [9] (wild-type mice, APAP 500 mg/kg, androstanol 100 mg/kg i.p.) is given as “blocked hepatotoxicity; also recorded: nearly complete absence of hepatotoxicity”. In the data set with CAR [10] (CAR knockout animals, APAP 500 mg/kg, androstanol 100 mg/kg i.p.), the “hepatotoxicity, treatment after APAP” value is listed as “did not block toxicity”. Besides, the “serum ALT, androstanol and APAP versus APAP alone” value in the data set with CAR [10] (CAR −/− animals) is “somewhat higher”. In addition, the “ALT levels, CAR (+/+) versus CAR (−/−) animals” value in the data set with CAR [10] (androstanol at one and three hours after APAP 500 mg/kg) is recorded as “significantly lower ALT levels”.

For `Clc1ccccc1C(c1ccccc1)(c1ccccc1)n1ccnc1` [clotrimazole], the “activity on human CAR receptor” value at human CAR [7] is “inverse agonist of human”.
